Assay results reported in patent US9833497B2, “Human originated EGF domain proteins and use of the same” (CHENGDU SOURCEBIO LIMITED-LIABILITY COMPANY, priority 2013, dated 2017).

Assays:
Type in all cases: cell-based
E. coli DH5α = assay: Antibacterial activity: MIC and growth curve against E. coli DH5α in 96-well plate; settings: minimal inhibitory concentration against E. coli DH5α; 96-well plate, 5×10^5 CFU/mL, 37° C., judged after 8 h
Method in brief: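 MIC taken as lowest protein level with no bacterial growth, tracked by A600 every 30 min during 37 °C, 175 rpm culture. Two-fold protein series 50-12.5 μg/mL final, triplicate wells, against 5×10^5 CFU/mL of LB-washed mid-log cells.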

E. coli BL21 = assay: MIC against Gram-negative bacteria: E. coli BL21; settings: for MIC E. coli BL21: 96-well plate, 37° C., 10 h
Method in brief: (§1)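 Growth inhibition by human EGF domain proteins was scored in LB liquid culture seeded at 5×10^5 CFU/mL. Protein was applied as a two-fold dilution series in triplicate, with shaking incubation at 37° C; MIC is the lowest concentration giving no growth.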

Pseudomonas aeruginosa = assay: MIC against Gram-negative bacteria: Pseudomonas aeruginosa; settings: for MIC P. aeruginosa: 96-well plate, 37° C., 10 h
Method in brief: as §1

Klebsiella pneumonia = assay: MIC against Gram-negative bacteria: Klebsiella pneumonia; settings: for MIC K. pneumonia: 96-well plate, 37° C., 10 h
Method in brief: as §1

Enterobacter cloacae = assay: MIC against Gram-negative bacteria: Enterobacter cloacae; settings: for MIC E. cloacae: 96-well plate, 37° C., 10 h
Method in brief: as §1

Aeromonas hydrophila = assay: MIC against Gram-negative bacteria: Aeromonas hydrophila; settings: for MIC A. hydrophila: 96-well plate, 37° C., 10 h
Method in brief: as §1

Citrobacter diversus = assay: MIC against Gram-negative bacteria: Citrobacter diversus; settings: for MIC C. diversus: 96-well plate, 37° C., 10 h
Method in brief: as §1

Moraxella catarrhalis = assay: MIC against Gram-negative bacteria: Moraxella catarrhalis; settings: for MIC M. catarrhalis: 96-well plate, 37° C., 10 h
Method in brief: as §1

Proteus mirabilis = assay: MIC against Gram-negative bacteria: Proteus mirabilis; settings: for MIC P. mirabilis: 96-well plate, 37° C., 10 h
Method in brief: as §1

Proteus vulgaris = assay: MIC against Gram-negative bacteria: Proteus vulgaris; settings: for MIC P. vulgaris: 96-well plate, 37° C., 10 h
Method in brief: as §1

Serratia marcescens = assay: MIC against Gram-negative bacteria: Serratia marcescens; settings: for MIC S. marcescens: 96-well plate, 37° C., 10 h
Method in brief: as §1

[1] = E. coli BL21, 10 h cultivation at 37° C., 5×10^5 CFU/mL
[2] = P. aeruginosa, 10 h cultivation at 37° C., 5×10^5 CFU/mL
[3] = K. pneumonia, 10 h cultivation at 37° C., 5×10^5 CFU/mL
[4] = E. cloacae, 10 h cultivation at 37° C., 5×10^5 CFU/mL
[5] = A. hydrophila, 10 h cultivation at 37° C., 5×10^5 CFU/mL
[6] = C. diversus, 10 h cultivation at 37° C., 5×10^5 CFU/mL
[7] = M. catarrhalis, 10 h cultivation at 37° C., 5×10^5 CFU/mL
[8] = P. mirabilis, 10 h cultivation at 37° C., 5×10^5 CFU/mL
[9] = P. vulgaris, 10 h cultivation at 37° C., 5×10^5 CFU/mL
[10] = S. marcescens, 10 h cultivation at 37° C., 5×10^5 CFU/mL

Q: With “PRT644 (DINECQLQGVCPNGECLNTMGSYRCTCKIGFGPDPTFS; listed as Homo sapiens)” as the substance, how does the MIC (E. coli DH5α) read?
A: The MIC was 25 µg/mL.

Q: And the “MIC E. coli BL21” value (E. coli BL21; 5×10^5 CFU/mL)?
A: Its value is 12.5 µg/mL.

Q: And the “MIC P. aeruginosa” value (Pseudomonas aeruginosa; 5×10^5 CFU/mL)?
A: The value was 25 µg/mL.

Q: What about the “MIC K. pneumonia” value (Klebsiella pneumonia; 5×10^5 CFU/mL) of the same substance?
A: The value was 50 µg/mL.

Q: And the “MIC E. cloacae” value (Enterobacter cloacae; 5×10^5 CFU/mL)?
A: Its value is 25 µg/mL.

Q: And the “MIC A. hydrophila” value (Aeromonas hydrophila; 5×10^5 CFU/mL)?
A: Its value is 12.5 µg/mL.

Q: What about the “MIC C. diversus” value (Citrobacter diversus; 5×10^5 CFU/mL) of the same substance?
A: Its value is 25 µg/mL.

Q: And the “MIC M. catarrhalis” value (Moraxella catarrhalis; 5×10^5 CFU/mL)?
A: Its value is 50 µg/mL.

Q: What about the “MIC P. mirabilis” value (Proteus mirabilis; 5×10^5 CFU/mL) of the same substance?
A: The value was 25 µg/mL.

Q: What about the “MIC P. vulgaris” value (Proteus vulgaris; 5×10^5 CFU/mL) of the same substance?
A: The value was 100 µg/mL.

Q: What about the “MIC S. marcescens” value (Serratia marcescens; 5×10^5 CFU/mL) of the same substance?
A: Its value is 25 µg/mL.

Q: What does the source list for “PRT220 (DINECETTNECREDEMCWNYHGGFRCYPRNPCQDPYILTPENRCV; listed as Homo sapiens)”?
A: MIC (E. coli DH5α): 25 µg/mL; MIC (μg/mL) E. coli BL21 (E. coli BL21; [1]): 25 µg/mL; MIC (μg/mL) P. aeruginosa (Pseudomonas aeruginosa; [2]): 12.5 µg/mL; MIC (μg/mL) K. pneumonia (Klebsiella pneumonia; [3]): 25 µg/mL; MIC (μg/mL) E. cloacae (Enterobacter cloacae; [4]): 12.5 µg/mL; MIC (μg/mL) A. hydrophila (Aeromonas hydrophila; [5]): 25 µg/mL; MIC (μg/mL) C. diversus (Citrobacter diversus; [6]): 12.5 µg/mL; MIC (μg/mL) M. catarrhalis (Moraxella catarrhalis; [7]): 12.5 µg/mL; MIC (μg/mL) P. mirabilis (Proteus mirabilis; [8]): 12.5 µg/mL; MIC (μg/mL) P. vulgaris (Proteus vulgaris; [9]): 12.5 µg/mL; MIC (μg/mL) S. marcescens (Serratia marcescens; [10]): 50 µg/mL

Q: What does the source list for “PRT905 (DVNECDSQPCLHGGTCQDGCGSYRCTCPQGYTGPNCQ; listed as Homo sapiens)”?
A: MIC (E. coli DH5α): 25 µg/mL; MIC (E. coli BL21; E. coli BL21, 10 h cultivation at 37° C.): 50 µg/mL; MIC (Pseudomonas aeruginosa; P. aeruginosa, 10 h cultivation at 37° C.): 12.5 µg/mL; MIC (Klebsiella pneumonia; K. pneumonia, 10 h cultivation at 37° C.): 25 µg/mL; MIC (Enterobacter cloacae; E. cloacae, 10 h cultivation at 37° C.): 50 µg/mL; MIC (Aeromonas hydrophila; A. hydrophila, 10 h cultivation at 37° C.): 12.5 µg/mL; MIC (Citrobacter diversus; C. diversus, 10 h cultivation at 37° C.): 50 µg/mL; MIC (Moraxella catarrhalis; M. catarrhalis, 10 h cultivation at 37° C.): 25 µg/mL; MIC (Proteus mirabilis; P. mirabilis, 10 h cultivation at 37° C.): 12.5 µg/mL; MIC (Proteus vulgaris; P. vulgaris, 10 h cultivation at 37° C.): 50 µg/mL; MIC (Serratia marcescens; S. marcescens, 10 h cultivation at 37° C.): 12.5 µg/mL

Q: What does the source list for “PRT607 (CDCHPEGSLSLQCKDDGRCECREGFVGNRCDQCEENYFYNRSWPGCQE; listed as Homo sapiens)”?
A: MIC (E. coli DH5α): 50 µg/mL; MIC E. coli BL21 (E. coli BL21; 5×10^5 CFU/mL): 25 µg/mL; MIC P. aeruginosa (Pseudomonas aeruginosa; 5×10^5 CFU/mL): 12.5 µg/mL; MIC K. pneumonia (Klebsiella pneumonia; 5×10^5 CFU/mL): 25 µg/mL; MIC E. cloacae (Enterobacter cloacae; 5×10^5 CFU/mL): 50 µg/mL; MIC A. hydrophila (Aeromonas hydrophila; 5×10^5 CFU/mL): 12.5 µg/mL; MIC C. diversus (Citrobacter diversus; 5×10^5 CFU/mL): 50 µg/mL; MIC M. catarrhalis (Moraxella catarrhalis; 5×10^5 CFU/mL): 12.5 µg/mL; MIC P. mirabilis (Proteus mirabilis; 5×10^5 CFU/mL): 50 µg/mL; MIC P. vulgaris (Proteus vulgaris; 5×10^5 CFU/mL): 12.5 µg/mL; MIC S. marcescens (Serratia marcescens; 5×10^5 CFU/mL): 50 µg/mL

Q: With “PRT842 (CGCSFHSHCRKRGPGFCDECQDWTWGEHCERCRPGSFGNATGSRGCRP; listed as Homo sapiens)” as the substance, how does the MIC (E. coli DH5α) read?
A: The MIC was 12.5 µg/mL.

Q: And the “MIC (μg/mL) E. coli BL21” value (E. coli BL21; [1])?
A: Its value is 12.5 µg/mL.

Q: What about the “MIC (μg/mL) P. aeruginosa” value (Pseudomonas aeruginosa; [2]) of the same substance?
A: Its value is 25 µg/mL.

Q: What about the “MIC (μg/mL) K. pneumonia” value (Klebsiella pneumonia; [3]) of the same substance?
A: Its value is 25 µg/mL.

Q: What about the “MIC (μg/mL) E. cloacae” value (Enterobacter cloacae; [4]) of the same substance?
A: The value was 12.5 µg/mL.

Q: And the “MIC (μg/mL) A. hydrophila” value (Aeromonas hydrophila; [5])?
A: The value was 25 µg/mL.

Q: And the “MIC (μg/mL) C. diversus” value (Citrobacter diversus; [6])?
A: Its value is 12.5 µg/mL.

Q: And the “MIC (μg/mL) M. catarrhalis” value (Moraxella catarrhalis; [7])?
A: The value was 25 µg/mL.

Q: And the “MIC (μg/mL) P. mirabilis” value (Proteus mirabilis; [8])?
A: The value was 12.5 µg/mL.

Q: What about the “MIC (μg/mL) P. vulgaris” value (Proteus vulgaris; [9]) of the same substance?
A: The value was 12.5 µg/mL.

Q: What about the “MIC (μg/mL) S. marcescens” value (Serratia marcescens; [10]) of the same substance?
A: The value was 25 µg/mL.

Q: Which MIC (E. coli DH5α) does the source give for “PRT146 (DRDECSFQPGPCSTLVQCFNTQGSFYCGACPTGWQGNGYICE; listed as Homo sapiens)” here?
A: The MIC was 12.5 µg/mL.

Q: What about the “MIC (μg/mL) E. coli BL21” value (E. coli BL21; [1]) of the same substance?
A: The value was 50 µg/mL.

Q: And the “MIC (μg/mL) P. aeruginosa” value (Pseudomonas aeruginosa; [2])?
A: Its value is 12.5 µg/mL.

Q: What about the “MIC (μg/mL) K. pneumonia” value (Klebsiella pneumonia; [3]) of the same substance?
A: The value was 50 µg/mL.

Q: And the “MIC (μg/mL) E. cloacae” value (Enterobacter cloacae; [4])?
A: The value was 12.5 µg/mL.

Q: And the “MIC (μg/mL) A. hydrophila” value (Aeromonas hydrophila; [5])?
A: Its value is 12.5 µg/mL.

Q: What about the “MIC (μg/mL) C. diversus” value (Citrobacter diversus; [6]) of the same substance?
A: The value was 25 µg/mL.

Q: What about the “MIC (μg/mL) M. catarrhalis” value (Moraxella catarrhalis; [7]) of the same substance?
A: Its value is 12.5 µg/mL.

Q: And the “MIC (μg/mL) P. mirabilis” value (Proteus mirabilis; [8])?
A: The value was 25 µg/mL.

Q: What about the “MIC (μg/mL) P. vulgaris” value (Proteus vulgaris; [9]) of the same substance?
A: The value was 12.5 µg/mL.

Q: And the “MIC (μg/mL) S. marcescens” value (Serratia marcescens; [10])?
A: The value was 25 µg/mL.

Q: For “PRT1366 (ERLACPGACSGHGRCVDGRCLCHEPYVGADCG; listed as Homo sapiens)”, which MIC (E. coli DH5α) is on record?
A: Its MIC is 12.5 µg/mL.

Q: What about the “MIC against E. coli BL21” value (E. coli BL21; E. coli BL21, 5×10^5 CFU/mL, 10 h cultivation at 37° C.) of the same substance?
A: Its value is 12.5 µg/mL.

Q: What about the “MIC against P. aeruginosa” value (Pseudomonas aeruginosa; Pseudomonas aeruginosa, 5×10^5 CFU/mL, 10 h cultivation at 37° C.) of the same substance?
A: Its value is 12.5 µg/mL.

Q: And the “MIC against K. pneumonia” value (Klebsiella pneumonia; Klebsiella pneumonia, 5×10^5 CFU/mL, 10 h cultivation at 37° C.)?
A: The value was 25 µg/mL.

Q: And the “MIC against E. cloacae” value (Enterobacter cloacae; Enterobacter cloacae, 5×10^5 CFU/mL, 10 h cultivation at 37° C.)?
A: Its value is 12.5 µg/mL.

Q: What about the “MIC against A. hydrophila” value (Aeromonas hydrophila; Aeromonas hydrophila, 5×10^5 CFU/mL, 10 h cultivation at 37° C.) of the same substance?
A: The value was 12.5 µg/mL.

Q: And the “MIC against C. diversus” value (Citrobacter diversus; Citrobacter diversus, 5×10^5 CFU/mL, 10 h cultivation at 37° C.)?
A: The value was 12.5 µg/mL.

Q: What about the “MIC against M. catarrhalis” value (Moraxella catarrhalis; Moraxella catarrhalis, 5×10^5 CFU/mL, 10 h cultivation at 37° C.) of the same substance?
A: Its value is 12.5 µg/mL.

Q: What about the “MIC against P. mirabilis” value (Proteus mirabilis; Proteus mirabilis, 5×10^5 CFU/mL, 10 h cultivation at 37° C.) of the same substance?
A: Its value is 12.5 µg/mL.

Q: And the “MIC against P. vulgaris” value (Proteus vulgaris; Proteus vulgaris, 5×10^5 CFU/mL, 10 h cultivation at 37° C.)?
A: The value was 12.5 µg/mL.

Q: What about the “MIC against S. marcescens” value (Serratia marcescens; Serratia marcescens, 5×10^5 CFU/mL, 10 h cultivation at 37° C.) of the same substance?
A: The value was 12.5 µg/mL.
